Results published in a melting point compilation (Tetko et al.; mined from patent text by program, amines drawn as free bases though some values may be those of a salt).

Row | melting point [°C] | Compound
1 | 267 to 270 | COc1cc(Nc2c(C#N)cnc3cc(NC(C)=O)c(OC)cc23)c(Cl)cc1Cl
2 | 204 to 206 | COc1ccc(N2C(=O)/C(=C/C(C)=NO)C2c2ccccc2)cc1 (stereo unspecified)
3 | 106 to 107 | CC(=O)Nc1scc(C)c1C(=O)c1ccccc1
4 | 44.1 to 45.5 | CCc1ncnc(Sc2ccc(Cl)cc2)c1F
5 | 200 to 204 | O=S1c2ccccc2Sc2ccc(-c3nnn[nH]3)cc21 (stereo unspecified)
6 | 84 to 96 | Cc1cn(C(C)C(=O)N2CCOCC2)nc1-c1ccccc1 (stereo unspecified)
7 | 69 to 75 | CCCCC(=O)NCCc1c(OC)ccc2ccccc12
8 | 107 to 109 | COC(=O)CCCC#Cc1cc(Cl)ccc1NS(=O)(=O)c1c(C)noc1C
9 | 110 to 111 | COc1ncc(CNc2ccccc2C(=O)Nc2cccc(C(F)(F)F)c2)cc1Br
10 | 203 | Cc1c(C(=O)O)cnn1CCO
11 | 67 | COc1ccc(C(Cl)=CC(=O)C(F)(F)C(F)(F)F)cc1OC
12 | 219 to 220 | Cn1c2cc(Cl)ccc2c2c(CO)nn(-c3ccccc3)c(=O)c21
13 | 289 to 290 | COc1cc(-c2ccc3n[nH]c(=O)n3n2)cc(OC)c1OC
14 | 138 to 140 | CC1=C(C(=O)OC(C)C)C(c2cccc([N+](=O)[O-])c2)N(C(=O)Oc2ccc([N+](=O)[O-])cc2)C(=O)N1 (stereo unspecified)
15 | 103 to 107 | CNC(=O)C1CN(C(c2ccccc2)c2ccccc2)C1
16 | 59 to 61 | C=CCN(CC)C(=O)n1cnc(S(=O)CC)n1 (stereo unspecified)
17 | 97 | Cc1cc(C)nc(NC(=O)C(N)Cc2ccccc2)c1 (stereo unspecified)
18 | 109 to 110 | CCCOC(=O)c1cc(=O)c2cc(OCc3cccc(OCc4ccc5ccccc5n4)c3)ccc2o1
19 | 134 to 135 | CCOP(=O)(/C=C/c1cn(-c2ccccc2)nc1OCc1ccc(OCc2nc(-c3ccco3)oc2C)nc1)OCC
20 | 224 to 227 | Cc1ccc(-c2cc3ccc(C(=O)Nc4ccc(CN(C)C5CCOCC5)cc4)cc3o2)cc1

Row | melting point [°C] | Compound
21 | 72 to 74 | Cc1ccc(C#N)nc1
22 | 223 to 224 | CCOc1ccc(Nc2nnc(Cc3ccncc3)c3ccccc23)cc1
23 | 221 | Cc1cc(=O)c(Oc2ccc(Cl)cc2)c(-c2ccc(S(N)(=O)=O)cc2)o1
24 | 125 to 126 | CC(=O)OCC1OC(n2c(=O)sc3c(Cl)nc(Cl)nc32)C(OC(C)=O)C1OC(C)=O (stereo unspecified)
25 | 98 to 100 | COC(=O)c1cc(Oc2cccnc2)c(C(F)(F)F)cc1[N+](=O)[O-]
26 | 154 to 156 | Clc1ccc2c(c1)C=C(Cn1ccnc1)c1ccsc1S2
27 | 70 to 73 | Oc1ccc2c(ccn2Nc2ccncc2F)c1
28 | 243 | CC1(C)CC(=O)C(c2c(Cl)cc(N)cc2Cl)C(=O)C1
29 | 103 to 104 | CN(C)C(=O)[C@H]1C[C@H]1C(=O)N(C)C
30 | 180 to 182 | COc1nc2cc(C)c(C)cc2nc1C(=O)O
31 | > 250 | Oc1ccc2c(c1)ncn2-c1ccc2cccc(Cl)c2n1
32 | 230 to 231 | Cc1noc(NC(=O)N2CCN(c3nc(-c4cccc(C(F)(F)F)c4)cs3)CC2)c1C
33 | 113 to 115 | CC(Oc1ccc(Oc2ccc(F)cc2)cc1)(C(=O)O)c1ccccc1 (stereo unspecified)
34 | 266 to 268 | Cc1ccc2c(c1)S(=O)(=O)N=C(NC(C)C)N2
35 | 117 to 119 | O=[N+]([O-])c1cc(O)c(F)cc1F
36 | 110 to 111 | Fc1ccc(N2CCN(CCCc3[nH]nc4c3CSCC4)CC2)cc1
37 | 59.5 to 60.5 | CCOC(=O)c1c(C(F)(F)F)nc(C(F)F)c(CO)c1CC
38 | 131 to 132 | CC(=O)c1c(C)nc(C)nc1NCc1ccc(-c2ccccc2-c2nnnn2C(C)(C)C)cc1
39 | 170 to 172 | COC(=O)c1cc2cc(C)ccc2nn1

Row | Compound | melting point [°C]
40 | Cc1nc2ccc3c(c2o1)OC(CN1CCC2(CC1)C(=O)NCN2c1ccccc1)CO3 (stereo unspecified) | 240
41 | CC(C)NC(=O)c1c(NC(=O)c2cc(C(F)(F)F)nn2-c2ncccc2Cl)c(Cl)cc2cn[nH]c12 | 245 to 247
